# Experimental data from US11458126B2, “DHODH inhibitor for use in treating hematologic cancers” (PTC THERAPEUTICS, INC., priority 2017, dated 2022).
# Assay: Plasma concentration after oral administration (HPLC-MS/MS)
# Type: in vivo
# Settings: mice, 10 mg/kg, HPLC-MS/MS (FIG. 7)
# Source text: The side-effects associated with these DHODH inhibitors are believed to be due to off-target activities such as kinase inhibition [21; 22]. […] The antiviral compound GSK983 was recently reported as a DHODH inhibitor [23]. […] FACS analysis was done on FACSCalibur (FIG. 8).
compound,measurement,value
O=C(N[C@@H]1CCCc2c1[nH]c1ccc(Cl)cc21)c1ccccn1 [GSK983],plasma concentration compared with Cpd 1,lower plasma concentration
